The text below walks through data of the METLIN SMRT retention time set (Domingo-Almenara et al. 2019).

Structures are written as SMILES.

The nature of this series: gradient 5% acetonitrile 3 min, to 50% in 2 min, to 85% in 15 min, held 3 min, 100 µL/min. As to conditions: column: Zorbax Extend-C18 2.1 x 50 mm; eluents: water / acetonitrile, 0.1% formic acid. The essentials:
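Pure standards were run in mixtures of ~100 molecules by HPLC coupled to a quadrupole time-of-flight mass spectrometer. The column was a Zorbax Extend-C18 (2.1 × 50 mm, 1.8 μm) at 100 μL/min, with water and acetonitrile each containing 0.1% formic acid, in positive and negative ionization mode. Dead and dwell volumes were 40 μL and 900 μL. Retention time was taken from computationally picked adduct peaks, each manually inspected, with data collected over 3 months.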
Regarding `COc1cccc(-n2c(=O)c3sccc3n(Cc3nc(-c4ccc(F)cc4)no3)c2=O)c1`, the RP-LC retention time came out at 952 s.
Turning to `CCc1ccccc1NC(=O)Cn1c(=O)cc(-c2nc(C3CC3)no2)c2ccccc21`, the RP-LC retention time stood at 990 s.
`COc1ccc(C(O)Cn2ccn3nc(-c4ccc(C)c(C)c4)cc3c2=O)cc1` (stereo not given): the RP-LC retention time stood at 947 s.
As to `CCN(CC)CCCNC(=O)CN1C(=O)CCn2nc(-c3cn(C)c4ccccc34)cc21`, the RP-LC retention time amounted to 613 s.
`Cc1ccc(-n2nc(C)c(S(=O)(=O)N3CCC(C(=O)NC4CC4)CC3)c2C)cc1` showed an RP-LC retention time of 789 s.
In the case of `CC(C)NC(=O)c1ccc(OCC2CCCN(C(=O)c3ccc(F)cc3F)C2)cc1` (stereo not given), the RP-LC retention time was found to be 869 s.
`O=C(NC1CCCc2c1[nH]c1c(Cl)cccc21)c1ccncc1` (stereo not given) displayed an RP-LC retention time of 850 s.
In turn, `COc1ccc(-c2cn3ccn(-c4cc(C)cc(C)c4)c(=O)c3n2)cc1OC` yielded an RP-LC retention time of 797 s.
For `CC(=O)c1cccc(Nc2c(C(=O)N3CCOCC3)cnc3nc(C)ccc23)c1`, the RP-LC retention time was determined as 584 s.
Consider `CCC(=O)N1CCCn2nc(-c3cccc(F)c3)cc2C1`, for which the RP-LC retention time came out at 735 s.
The compound `Cc1noc(C)c1CNC(=O)C(C)Oc1ccc(Cl)cc1` (stereo not given) yielded an RP-LC retention time of 811 s.
Compound `Cc1cc(OCC(=O)N2CCC3(O)CCCCC3C2)c2c3c(c(=O)oc2c1)CCC3` (stereo not given) had an RP-LC retention time of 803 s.
Compound `Cc1ccc(CNC(=O)C2(C)CCN(C(=O)Nc3ccccc3C(F)(F)F)CC2)cc1` showed an RP-LC retention time of 927 s.
On to `O=C(CN1C(=O)CCCc2cc(S(=O)(=O)N3CCCC3)ccc21)N1CCc2ccccc2C1`, for which the RP-LC retention time turned out to be 838 s.
`Cc1cc(-c2nnc(C3CCC3)o2)c(C)n1CC(=O)Nc1ccc2c(c1)OCCO2`: the RP-LC retention time worked out at 836 s.
In the case of `Cc1cc(-c2c(C)sc(C)c2S(=O)(=O)Nc2ccc(C)c(C)c2)n[nH]1`, the RP-LC retention time came to 1090 s.
In turn, `O=C(c1ccoc1)N1CCN(C(=O)c2nnn3c2COC(c2ccc(Cl)cc2)C3)CC1` (stereo not given) had an RP-LC retention time of 838 s.
`O=C(NCc1ccco1)c1c2c(nc3ccccc13)C(=O)N(C1CCCCC1)C2`: the RP-LC retention time amounted to 808 s.
`Cc1ccc(CNC(=O)C2CCCN(C(=O)Cc3cccc4ccccc34)C2)o1` (stereo not given) displayed an RP-LC retention time of 806 s.
On to `CCNc1cc(N2CCC(CCC(=O)NCc3ccccc3Cl)CC2)ncn1`, for which the RP-LC retention time turned out to be 585 s.
Under `O=C(C1CCCN(c2ncnc3c2nc2n3CCCCC2)C1)N1CC=C(c2ccccc2)CC1` (stereo not given) stands 922 s.
For `O=C(Nc1ccccc1F)N1CCC(n2cnc3cc(Cl)ccc3c2=O)CC1`, the RP-LC retention time came to 811 s.
Consider `Cc1ccc2c(c1)C(O)(CC(=O)c1cccc(Br)c1)C(=O)N2` (stereo not given), for which the RP-LC retention time turned out to be 789 s.
Next, `COc1ccccc1C1(CNC(=O)Cc2ccccc2Cl)CCOCC1`: 817 s.
For the compound `O=C(CCNc1c(-c2ccccc2)nc2cnccn12)N1CCC(N2CCCCC2)CC1`, the RP-LC retention time was 552 s.
`COc1ccc(N2CCN(c3ncc(S(=O)(=O)c4ccc(C(C)C)cc4)c(N)n3)CC2)cc1` yielded an RP-LC retention time of 1070 s.
In turn, `Cc1ccc(S(=O)(=O)N2CCC3(CC2)NCCN=C3NCc2ccccc2F)cc1` showed an RP-LC retention time of 709 s.
`CCCn1nnc2cc(S(=O)(=O)N3CCCC(C(=O)N4CCCCCC4)C3)ccc21` (stereo not given) yielded an RP-LC retention time of 890 s.
For the compound `Oc1c(C(Nc2cccc(Cl)c2)c2cccnc2)ccc2cccnc12` (stereo not given), the RP-LC retention time was 692 s.
Regarding `O=C(Cn1nc2c(cc1=O)CCCC2)Nc1nc(-c2cccnc2)cs1`, the RP-LC retention time stood at 607 s.
Take `CC(NC(=O)C1=CCN(Cc2cccc(F)c2)CC1)c1ccccc1` (stereo not given): the RP-LC retention time worked out at 662 s.
`Cc1ccc2oc(C(=O)NCC(c3ccccc3)N(C)C)cc(=O)c2c1` (stereo not given) came in with an RP-LC retention time of 619 s.
Compound `O=C(Nc1cccc(F)c1)c1n[nH]nc1Nc1cccc(F)c1` came in with an RP-LC retention time of 1050 s.
Under `CCc1ccccc1NC(=O)Cn1c(NCCCc2ccccc2)nc(C)cc1=O` stands 857 s; under `O=C(NC1CCN(c2cc(-c3ccc(F)cc3)[nH]n2)C1)c1cc(F)ccc1Cl` (stereo not given), 685 s; under `O=C(COc1ccccc1F)N1CC(c2nc3ccccc3[nH]2)C1`, 578 s.
Turning to `CCN(CC)C(=O)c1ccc2oc(CN3CCN(C(=O)NC(C)(C)C)CC3)nc2c1`, the RP-LC retention time turned out to be 628 s.
Compound `O=C(O)Cc1sc(Nc2ccccc2)nc1-c1ccccc1` returned an RP-LC retention time of 858 s.
On to `CCn1cc(-c2nc(C)c(C(=O)NCc3cccnc3)s2)c2cccnc21`, for which the RP-LC retention time worked out at 629 s.
In turn, `Cc1nc2cc(-c3noc(C4(c5ccccc5)CC4)n3)ccc2o1` registered an RP-LC retention time of 1110 s.
Compound `CC(=O)Nc1ccc(CCc2nc3ccc(C(=O)NCC4CCCO4)cc3[nH]2)cc1` (stereo not given) registered an RP-LC retention time of 562 s.
On to `O=C(c1cccc2[nH]ccc12)N1CC(Oc2cccc(-c3nc(-c4ccccc4)no3)c2)C1`, for which the RP-LC retention time turned out to be 1090 s.
Compound `CCC(C)NC(=O)c1ccn[nH]1` (stereo not given) returned an RP-LC retention time of 593 s.
For the compound `COC[C@@H]1CN(S(=O)(=O)Cc2ccccc2)C[C@H]1c1nc(C)no1`, the RP-LC retention time amounted to 836 s.
Regarding `CCN(CC)c1nc2ccsc2c(=O)n1CC(=O)NCc1ccc(Cl)cc1`, the RP-LC retention time came to 908 s.
Next, `CCCNC(=O)c1ccc(-c2ccc3c(c2)CCN3C(=O)CC)cc1`: 822 s; `Cc1ccc2c(c1)OCC(=O)N2CC(=O)NC1CC1`: 701 s.
Under `O=S(=O)(NCCCCN1CCOC(c2ccccc2)C1)c1ccc(F)cc1F` (stereo not given) stands 584 s; under `Nc1ncnc2c1ncn2C=C=CCO`, 581 s; under `Cc1[nH]c(-c2ccc(Cl)cc2)cc1C(=O)N1CCC(C)CC1`, 1010 s.
The compound `CCOC(=O)c1sc(NC(=O)c2ccncc2)nc1-c1ccccc1` returned an RP-LC retention time of 855 s.
Under `CCCS(=O)(=O)N1CCCC(Cc2noc(-c3cnccn3)n2)C1` (stereo not given) stands 764 s; under `CCc1nc2cc(-c3noc(Cc4ccc(F)cc4)n3)ccc2o1`, 1070 s.
For the compound `CCCN1C(=O)c2cc(C(=O)N3CCN(C4CCCCC4)CC3)nn2CC1(C)C(=O)NC1CCCC1` (stereo not given), the RP-LC retention time turned out to be 660 s.
Under `COc1ccc(CN2CC(C(=O)NC3(c4nc(C)no4)CCCCC3)CC2=O)cc1` (stereo not given) stands 706 s; under `Cc1nc(C(=O)NCC2CCCCC2)c(C)o1`, 922 s.
For `CCn1cc(-c2ccc(F)cc2)cc1C(=O)NC1CC1`, the RP-LC retention time was found to be 917 s.
Under `COCc1cn(C2CN(C(=O)c3ccc(C)s3)C2)nn1` stands 649 s.
In turn, `Cc1cc(C(=O)NCC2CCN(C(=O)Oc3ccccc3)CC2)c(C)o1` displayed an RP-LC retention time of 829 s.
Regarding `Nc1ccc(NC(=O)c2ccc(C(F)(F)F)cc2)nc1`, the RP-LC retention time was found to be 693 s.
